We go through seven molecules from publication PMC3961306, “Comparison of the Cancer Gene Targeting and Biochemical Selectivities of All Targeted Kinase Inhibitors Approved for Clinical Use” (PLoS ONE, 2014).

Molecules are shown by their SMILES.

Holding throughout (assay): Kinase profiling in a biochemical assay panel (mobility shift assays and ELISA), %-inhibition at 1 μM; selectivity entropy
A general note: An ELISA detects its analyte on a solid surface through an enzyme-linked reagent.

Experiment [1] deals with T1, panel of more than 300 wild-type and mutant kinases (313 kinase panel) (Homo sapiens, UniProt Q13163).
T1 sequence (Q13163 1-448): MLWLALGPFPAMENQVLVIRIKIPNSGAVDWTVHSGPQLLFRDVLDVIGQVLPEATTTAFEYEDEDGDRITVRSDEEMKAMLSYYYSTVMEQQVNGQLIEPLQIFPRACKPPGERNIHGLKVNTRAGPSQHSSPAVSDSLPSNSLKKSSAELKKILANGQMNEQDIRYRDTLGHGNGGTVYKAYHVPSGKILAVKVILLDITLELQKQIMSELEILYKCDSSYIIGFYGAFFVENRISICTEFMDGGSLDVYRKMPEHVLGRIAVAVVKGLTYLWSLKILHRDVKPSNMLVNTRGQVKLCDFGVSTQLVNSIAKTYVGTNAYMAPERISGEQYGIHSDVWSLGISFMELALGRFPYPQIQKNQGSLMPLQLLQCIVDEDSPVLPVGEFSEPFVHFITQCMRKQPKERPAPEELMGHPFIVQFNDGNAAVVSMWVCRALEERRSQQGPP
The conditions noted are these: kinase MAP2K5; compound at 1 μM.

Experiment [2] addresses T2, panel of more than 300 wild-type and mutant kinases (313 kinase panel) (Homo sapiens, UniProt Q02156).
T2 sequence (Q02156 1-737): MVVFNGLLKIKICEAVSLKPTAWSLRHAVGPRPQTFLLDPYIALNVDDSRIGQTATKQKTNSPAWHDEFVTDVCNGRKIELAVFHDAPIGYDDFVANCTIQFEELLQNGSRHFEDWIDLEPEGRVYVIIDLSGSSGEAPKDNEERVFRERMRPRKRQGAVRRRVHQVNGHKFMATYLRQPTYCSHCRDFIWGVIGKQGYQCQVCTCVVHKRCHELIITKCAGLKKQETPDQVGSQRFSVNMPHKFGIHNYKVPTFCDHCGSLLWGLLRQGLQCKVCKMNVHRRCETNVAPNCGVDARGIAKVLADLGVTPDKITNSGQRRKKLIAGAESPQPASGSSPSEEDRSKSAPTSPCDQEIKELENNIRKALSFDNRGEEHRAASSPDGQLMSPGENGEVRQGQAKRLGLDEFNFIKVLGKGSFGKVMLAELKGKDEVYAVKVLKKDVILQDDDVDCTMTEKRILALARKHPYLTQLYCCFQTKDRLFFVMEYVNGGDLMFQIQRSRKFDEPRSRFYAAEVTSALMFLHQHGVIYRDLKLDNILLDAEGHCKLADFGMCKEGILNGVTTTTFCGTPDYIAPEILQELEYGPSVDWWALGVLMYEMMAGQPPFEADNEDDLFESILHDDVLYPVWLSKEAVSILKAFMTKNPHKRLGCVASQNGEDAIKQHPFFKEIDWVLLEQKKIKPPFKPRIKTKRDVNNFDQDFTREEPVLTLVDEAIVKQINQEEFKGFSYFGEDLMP
The conditions noted are these: kinase PKCε; 1 μM.

For experiment [3], the target named is panel of more than 300 wild-type and mutant kinases (313 kinase panel) (Homo sapiens, UniProt Q9BYP7). The conditions noted are these: kinase WNK3; compound at 1 μM.
Experiment [4] addresses panel of more than 300 wild-type and mutant kinases (313 kinase panel) (Homo sapiens, UniProt P07949).
Experiment [5] has as its target panel of more than 300 wild-type and mutant kinases (313 kinase panel) (Homo sapiens, UniProt Q02763). The conditions noted are these: kinase TIE2; 1 μM.
Experiment [6] deals with panel of more than 300 wild-type and mutant kinases (313 kinase panel) (Homo sapiens, UniProt P51617). Conditions: kinase IRAK1; compound at 1 μM.
For experiment [7], the target named is panel of more than 300 wild-type and mutant kinases (313 kinase panel) (Homo sapiens, UniProt Q8IU85). The conditions noted are these: kinase CaMK1δ; 1 μM compound.
Experiment [8] addresses T3, panel of more than 300 wild-type and mutant kinases (313 kinase panel) (Homo sapiens, UniProt Q9UHD2).
T3 sequence (Q9UHD2 1-729): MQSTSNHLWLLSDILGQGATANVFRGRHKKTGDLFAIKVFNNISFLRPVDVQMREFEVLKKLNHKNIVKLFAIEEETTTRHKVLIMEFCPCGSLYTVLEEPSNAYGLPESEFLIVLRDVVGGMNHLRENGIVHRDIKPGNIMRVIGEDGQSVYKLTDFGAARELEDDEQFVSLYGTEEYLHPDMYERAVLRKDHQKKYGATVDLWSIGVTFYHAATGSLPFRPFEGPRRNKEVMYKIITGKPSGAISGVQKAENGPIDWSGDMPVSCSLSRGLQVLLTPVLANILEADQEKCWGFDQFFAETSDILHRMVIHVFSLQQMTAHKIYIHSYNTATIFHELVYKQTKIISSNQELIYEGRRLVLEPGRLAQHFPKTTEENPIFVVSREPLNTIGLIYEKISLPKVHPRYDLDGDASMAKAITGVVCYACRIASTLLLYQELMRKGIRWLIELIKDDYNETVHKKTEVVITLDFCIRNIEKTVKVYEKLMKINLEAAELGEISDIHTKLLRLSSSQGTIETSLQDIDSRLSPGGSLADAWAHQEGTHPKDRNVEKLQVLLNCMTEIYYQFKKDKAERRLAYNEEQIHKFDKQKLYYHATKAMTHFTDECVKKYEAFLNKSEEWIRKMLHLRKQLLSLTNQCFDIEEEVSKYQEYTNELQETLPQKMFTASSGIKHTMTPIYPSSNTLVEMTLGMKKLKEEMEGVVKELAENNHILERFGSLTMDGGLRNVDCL

Experiment [9] addresses panel of more than 300 wild-type and mutant kinases (313 kinase panel) (Homo sapiens, UniProt P23443). Conditions: kinase p70S6K; 1 μM.

Sequence of panel of more than 300 wild-type and mutant kinases (313 kinase panel) (Homo sapiens, UniProt Q02763) (Q02763 23-1124, change not shown): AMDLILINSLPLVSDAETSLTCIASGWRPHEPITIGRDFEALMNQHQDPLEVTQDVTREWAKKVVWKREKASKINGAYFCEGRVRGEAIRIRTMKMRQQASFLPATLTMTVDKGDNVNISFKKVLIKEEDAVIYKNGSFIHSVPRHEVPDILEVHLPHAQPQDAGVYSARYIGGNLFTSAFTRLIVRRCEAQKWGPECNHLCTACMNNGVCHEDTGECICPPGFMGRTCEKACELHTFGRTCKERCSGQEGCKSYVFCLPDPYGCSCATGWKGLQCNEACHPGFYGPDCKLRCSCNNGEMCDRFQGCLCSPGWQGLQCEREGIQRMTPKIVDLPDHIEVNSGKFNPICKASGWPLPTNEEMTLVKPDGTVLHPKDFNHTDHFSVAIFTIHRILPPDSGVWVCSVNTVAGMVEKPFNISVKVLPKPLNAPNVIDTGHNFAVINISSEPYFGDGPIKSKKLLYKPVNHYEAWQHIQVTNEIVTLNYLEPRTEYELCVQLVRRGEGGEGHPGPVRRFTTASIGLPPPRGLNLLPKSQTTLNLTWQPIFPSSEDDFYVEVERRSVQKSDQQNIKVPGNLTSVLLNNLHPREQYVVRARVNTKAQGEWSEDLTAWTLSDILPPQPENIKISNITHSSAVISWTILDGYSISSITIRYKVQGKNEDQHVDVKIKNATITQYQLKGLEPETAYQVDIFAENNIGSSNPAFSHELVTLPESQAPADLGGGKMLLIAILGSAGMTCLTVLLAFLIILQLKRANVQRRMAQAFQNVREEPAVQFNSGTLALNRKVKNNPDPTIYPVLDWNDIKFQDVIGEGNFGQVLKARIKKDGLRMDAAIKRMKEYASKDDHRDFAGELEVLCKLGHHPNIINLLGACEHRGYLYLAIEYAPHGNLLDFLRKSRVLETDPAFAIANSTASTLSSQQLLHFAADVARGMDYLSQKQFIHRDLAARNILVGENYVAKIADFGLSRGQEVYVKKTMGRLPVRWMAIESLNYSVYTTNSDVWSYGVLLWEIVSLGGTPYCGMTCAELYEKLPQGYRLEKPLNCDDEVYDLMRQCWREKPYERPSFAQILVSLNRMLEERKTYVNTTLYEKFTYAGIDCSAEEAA
Sequence of panel of more than 300 wild-type and mutant kinases (313 kinase panel) (Homo sapiens, UniProt P07949) (P07949 29-1114, change not shown): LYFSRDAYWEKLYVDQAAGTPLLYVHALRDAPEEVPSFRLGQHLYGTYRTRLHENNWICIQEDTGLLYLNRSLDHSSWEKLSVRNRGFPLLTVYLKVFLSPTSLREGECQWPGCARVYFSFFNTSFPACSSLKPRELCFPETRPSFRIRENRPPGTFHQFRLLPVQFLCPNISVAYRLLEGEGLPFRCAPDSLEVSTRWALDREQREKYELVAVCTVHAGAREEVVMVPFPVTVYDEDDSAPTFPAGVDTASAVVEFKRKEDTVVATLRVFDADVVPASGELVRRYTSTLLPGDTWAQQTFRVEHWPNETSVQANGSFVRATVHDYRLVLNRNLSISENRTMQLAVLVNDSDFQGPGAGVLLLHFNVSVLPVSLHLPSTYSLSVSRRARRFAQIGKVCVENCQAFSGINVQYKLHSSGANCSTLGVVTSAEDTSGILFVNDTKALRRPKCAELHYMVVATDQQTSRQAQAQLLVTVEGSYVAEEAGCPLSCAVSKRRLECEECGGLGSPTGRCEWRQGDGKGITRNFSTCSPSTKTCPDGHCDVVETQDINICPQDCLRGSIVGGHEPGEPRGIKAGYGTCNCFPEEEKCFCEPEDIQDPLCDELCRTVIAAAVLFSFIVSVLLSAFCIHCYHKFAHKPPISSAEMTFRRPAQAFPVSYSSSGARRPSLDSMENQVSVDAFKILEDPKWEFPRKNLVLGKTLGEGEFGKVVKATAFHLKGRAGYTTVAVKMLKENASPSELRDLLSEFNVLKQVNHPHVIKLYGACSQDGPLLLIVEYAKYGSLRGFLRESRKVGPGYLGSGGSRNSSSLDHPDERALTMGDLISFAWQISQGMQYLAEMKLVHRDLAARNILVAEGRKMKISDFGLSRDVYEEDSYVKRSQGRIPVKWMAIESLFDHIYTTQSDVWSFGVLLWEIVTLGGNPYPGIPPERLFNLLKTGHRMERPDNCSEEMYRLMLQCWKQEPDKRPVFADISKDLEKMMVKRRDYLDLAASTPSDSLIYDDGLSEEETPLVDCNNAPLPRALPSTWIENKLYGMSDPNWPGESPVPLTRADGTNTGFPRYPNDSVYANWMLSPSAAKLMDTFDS
Sequence of panel of more than 300 wild-type and mutant kinases (313 kinase panel) (Homo sapiens, UniProt Q9BYP7) (Q9BYP7 whole entry, change not shown): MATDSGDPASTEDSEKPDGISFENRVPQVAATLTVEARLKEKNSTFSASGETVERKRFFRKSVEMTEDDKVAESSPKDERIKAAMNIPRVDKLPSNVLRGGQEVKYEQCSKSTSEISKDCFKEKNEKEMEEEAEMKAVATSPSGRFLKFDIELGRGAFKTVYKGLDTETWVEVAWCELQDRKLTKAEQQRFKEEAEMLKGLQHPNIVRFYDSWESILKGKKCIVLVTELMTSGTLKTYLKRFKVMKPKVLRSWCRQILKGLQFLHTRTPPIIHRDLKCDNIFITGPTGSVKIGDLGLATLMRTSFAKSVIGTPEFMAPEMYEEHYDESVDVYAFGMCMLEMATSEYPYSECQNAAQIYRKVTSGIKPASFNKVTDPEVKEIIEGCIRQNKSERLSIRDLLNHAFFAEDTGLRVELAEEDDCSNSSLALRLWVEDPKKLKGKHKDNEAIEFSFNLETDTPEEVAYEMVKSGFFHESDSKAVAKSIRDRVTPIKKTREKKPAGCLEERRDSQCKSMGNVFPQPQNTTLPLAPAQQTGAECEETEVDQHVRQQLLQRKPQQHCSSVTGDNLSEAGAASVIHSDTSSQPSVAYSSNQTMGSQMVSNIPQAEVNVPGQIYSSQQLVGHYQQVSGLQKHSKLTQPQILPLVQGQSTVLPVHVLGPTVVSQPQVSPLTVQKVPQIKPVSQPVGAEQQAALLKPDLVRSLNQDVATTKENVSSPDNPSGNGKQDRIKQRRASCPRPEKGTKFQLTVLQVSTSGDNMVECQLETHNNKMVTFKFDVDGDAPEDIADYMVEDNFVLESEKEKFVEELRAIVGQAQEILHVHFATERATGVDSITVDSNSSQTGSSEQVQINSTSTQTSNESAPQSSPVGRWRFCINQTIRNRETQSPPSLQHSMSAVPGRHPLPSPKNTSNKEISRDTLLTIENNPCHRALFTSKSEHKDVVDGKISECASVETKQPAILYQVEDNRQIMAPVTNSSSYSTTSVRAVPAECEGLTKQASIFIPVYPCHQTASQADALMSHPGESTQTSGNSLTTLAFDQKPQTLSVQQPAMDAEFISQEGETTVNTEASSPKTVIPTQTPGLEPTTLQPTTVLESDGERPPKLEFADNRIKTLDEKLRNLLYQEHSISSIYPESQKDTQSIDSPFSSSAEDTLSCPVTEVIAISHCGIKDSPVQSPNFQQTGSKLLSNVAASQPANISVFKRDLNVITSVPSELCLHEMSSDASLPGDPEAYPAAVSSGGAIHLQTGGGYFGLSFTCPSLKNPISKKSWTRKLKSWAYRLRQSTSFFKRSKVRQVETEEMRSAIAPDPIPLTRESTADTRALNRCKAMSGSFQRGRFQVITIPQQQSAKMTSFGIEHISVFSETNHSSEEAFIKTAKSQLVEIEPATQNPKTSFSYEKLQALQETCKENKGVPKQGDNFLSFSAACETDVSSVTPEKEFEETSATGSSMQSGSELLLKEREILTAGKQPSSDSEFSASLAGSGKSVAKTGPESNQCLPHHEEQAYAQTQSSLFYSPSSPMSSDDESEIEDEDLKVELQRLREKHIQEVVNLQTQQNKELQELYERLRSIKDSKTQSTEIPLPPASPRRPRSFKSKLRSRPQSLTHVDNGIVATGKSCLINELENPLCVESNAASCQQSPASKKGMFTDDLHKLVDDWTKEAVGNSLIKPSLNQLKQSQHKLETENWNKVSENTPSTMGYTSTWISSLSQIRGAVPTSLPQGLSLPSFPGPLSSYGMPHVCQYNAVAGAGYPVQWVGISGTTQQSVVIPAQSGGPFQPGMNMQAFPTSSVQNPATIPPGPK

Turning to `CO[C@H]1C[C@@H]2CC[C@@H](C)[C@@](O)(O2)C(=O)C(=O)N2CCCC[C@H]2C(=O)O[C@H]([C@H](C)C[C@@H]2CC[C@@H](OCCO)[C@H](OC)C2)CC(=O)[C@H](C)/C=C(\C)[C@@H](O)[C@@H](OC)C(=O)[C@H](C)C[C@H](C)/C=C/C=C/C=C/1C` [everolimus], in experiment [1], the “%-inhibition of MAP2K5” value stood at 1.34%. Further, in experiment [2], the “%-inhibition of PKCε” value is listed as -2.79%. The “%-inhibition of WNK3” value in experiment [3] was -12%. In experiment [4] (kinase RET, 1 μM), the “%-inhibition of RET” value is reported as -4%. In addition, the “%-inhibition of TIE2” value in [5] is given as -3.66%. For the same molecule, in experiment [6], the “%-inhibition of IRAK1” value is 12%. In experiment [7], the “%-inhibition, CaMK1δ” value is recorded as -8%. Moreover, in experiment [8] (kinase TBK1, 1 μM), the “%-inhibition of TBK1” value was -5%. The “%-inhibition of p70S6K” value in [9] is on record as -13%.

On to `O=S(=O)(c1cccc2cnccc12)N1CCCNCC1` [fasudil], for which, in experiment [1], the “%-inhibition of MAP2K5” value worked out at 13%. Further, the “%-inhibition of PKCε” value in experiment [2] is reported as -43%. Further, the “%-inhibition of WNK3” value in experiment [3] stood at 0.446%. Besides, in [4] (kinase RET, 1 μM), the “%-inhibition of RET” value is reported as -5%. For the same molecule, in [5], the “%-inhibition of TIE2” value is -10%. In addition, in experiment [6], the “%-inhibition of IRAK1” value amounted to 3.42%. The “%-inhibition, CaMK1δ” value in [7] was -4%. Besides, the “%-inhibition of TBK1” value in experiment [8] (kinase TBK1, 1 μM) is given as -5%. In experiment [9], the “%-inhibition of p70S6K” value stood at 38%.

Take `Cc1cn(-c2cc(NC(=O)c3ccc(C)c(Nc4nccc(-c5cccnc5)n4)c3)cc(C(F)(F)F)c2)cn1` [nilotinib]: the “%-inhibition of MAP2K5” value in [1] is given as -7.56%. The “%-inhibition of PKCε” value in experiment [2] is -0.567%. For the same molecule, the “%-inhibition of WNK3” value in experiment [3] is listed as -7%. For the same molecule, in experiment [4] (1 µM), the “%-inhibition of RET” value worked out at 31%. Further, the “%-inhibition of TIE2” value in experiment [5] was found to be 41%. In addition, the “%-inhibition of IRAK1” value in experiment [6] amounted to 8%. Besides, the “%-inhibition, CaMK1δ” value in experiment [7] turned out to be 3.56%. The “%-inhibition of TBK1” value in experiment [8] (1 µM) is 6%. Further, the “%-inhibition of p70S6K” value in experiment [9] is 2%.

`CNC(=O)c1cc(Oc2ccc(NC(=O)Nc3ccc(Cl)c(C(F)(F)F)c3)c(F)c2)ccn1` [regorafenib]: the “%-inhibition of MAP2K5” value in experiment [1] is 17%. Further, the “%-inhibition of PKCε” value in experiment [2] is -8%. Further, the “%-inhibition of WNK3” value in experiment [3] is reported as -10%. In [4] (1 µM), the “%-inhibition of RET” value stood at 102%. Besides, the “%-inhibition of TIE2” value in experiment [5] was determined as 47%. Moreover, the “%-inhibition of IRAK1” value in [6] worked out at 16%. Also, the “%-inhibition, CaMK1δ” value in [7] is given as -5.29%. For the same molecule, the “%-inhibition of TBK1” value in experiment [8] (kinase TBK1, 1 μM) was -2.13%. Further, the “%-inhibition of p70S6K” value in [9] amounted to 92%.

On to `CO[C@H]1C[C@@H]2CC[C@@H](C)[C@@](O)(O2)C(=O)C(=O)N2CCCC[C@H]2C(=O)O[C@H]([C@H](C)C[C@@H]2CC[C@@H](OC(=O)C(C)(CO)CO)[C@H](OC)C2)CC(=O)[C@H](C)/C=C(\C)[C@@H](O)[C@@H](OC)C(=O)[C@H](C)C[C@H](C)/C=C/C=C/C=C/1C` [temsirolimus], for which the “%-inhibition of MAP2K5” value in [1] is -1.51%. Also, the “%-inhibition of PKCε” value in experiment [2] is listed as 4.32%. Moreover, the “%-inhibition of WNK3” value in [3] is reported as -13%. Besides, in [4] (kinase RET, 1 μM), the “%-inhibition of RET” value is reported as -3%. Also, the “%-inhibition of TIE2” value in experiment [5] is given as -8%. In experiment [6], the “%-inhibition of IRAK1” value was 13%. In [7], the “%-inhibition, CaMK1δ” value is reported as -7%. Further, the “%-inhibition of TBK1” value in [8] (kinase TBK1, 1 μM) was -2.23%. In addition, the “%-inhibition of p70S6K” value in experiment [9] is -13%.

Take `CC(=O)Nc1cccc(-n2c(=O)n(C3CC3)c(=O)c3c(Nc4ccc(I)cc4F)n(C)c(=O)c(C)c32)c1` [trametinib]: the “%-inhibition of MAP2K5” value in [1] is given as 13%. The “%-inhibition of PKCε” value in experiment [2] is 6%. Moreover, the “%-inhibition of WNK3” value in [3] is 1%. Further, the “%-inhibition of RET” value in experiment [4] (kinase RET, 1 μM) is given as -8%. The “%-inhibition of TIE2” value in experiment [5] is recorded as -7%. Besides, in experiment [6], the “%-inhibition of IRAK1” value amounted to 6%. In [7], the “%-inhibition, CaMK1δ” value is listed as -3.3%. Also, the “%-inhibition of TBK1” value in experiment [8] (kinase TBK1, 1 μM) is given as -4.47%. Moreover, the “%-inhibition of p70S6K” value in [9] is on record as -1.39%.

Take `CCCS(=O)(=O)Nc1ccc(F)c(C(=O)c2c[nH]c3ncc(-c4ccc(Cl)cc4)cc23)c1F` [vemurafenib]: the “%-inhibition of MAP2K5” value in experiment [1] is 32%. In [2], the “%-inhibition of PKCε” value was -8%. Besides, in [3], the “%-inhibition of WNK3” value came to 53%. Besides, in experiment [4] (kinase RET, 1 μM), the “%-inhibition of RET” value was 32%. Moreover, the “%-inhibition of TIE2” value in [5] was -2.42%. Besides, the “%-inhibition of IRAK1” value in experiment [6] is on record as 10%. Further, the “%-inhibition, CaMK1δ” value in [7] is -7%. For the same molecule, in [8] (kinase TBK1, 1 μM), the “%-inhibition of TBK1” value was -0.81%. For the same molecule, the “%-inhibition of p70S6K” value in experiment [9] is 9%.
